# Reference: PubChem BioAssay AID2060496 (Molecular Pharmacology Branch, DTP, NCI, 2025)
# System: 276233-004-R-J1-PDC complex spheroid viability
# Assay: Anticancer human tumor 276233-004-R-J1-PDC patient-derived colon adenocarcinoma cell line growth inhibition [GQUAD]
# Settings: for IC50: curve of first compound; for viability, T/C: stronger effect = lower value
# Outline: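 Viability of tumor cells grown as complex spheroids with endothelial and stromal cells, exposed to drug combinations. Top concentration at or near clinical Cmax (else 10 microM), diluted in half-log increments.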
# [1] = second compound 0.0316 µM, first compound 0.0316 µM
# [2] = second compound 0.0316 µM, first compound 0.1 µM
# [3] = second compound 0.0316 µM, first compound 0.316 µM
# [4] = second compound 0.0316 µM, first compound 1 µM
# [5] = second compound 0.0316 µM, first compound 3.16 µM
# [6] = second compound 0.0316 µM, first compound 10 µM
# [7] = second compound 0.1 µM, first compound 0.0316 µM
# [8] = second compound 0.1 µM, first compound 0.1 µM
# [9] = second compound 0.1 µM, first compound 0.316 µM
# [10] = second compound 0.1 µM, first compound 1 µM
# [11] = second compound 0.1 µM, first compound 3.16 µM
# [12] = second compound 0.1 µM, first compound 10 µM
# [13] = second compound 0.316 µM, first compound 0.0316 µM
# [14] = second compound 0.316 µM, first compound 0.1 µM
# [15] = second compound 0.316 µM, first compound 0.316 µM
# [16] = second compound 0.316 µM, first compound 1 µM
# [17] = second compound 0.316 µM, first compound 3.16 µM
# [18] = second compound 0.316 µM, first compound 10 µM
# [19] = second compound 1 µM, first compound 0.0316 µM
# [20] = second compound 1 µM, first compound 0.1 µM
# [21] = second compound 1 µM, first compound 0.316 µM
# [22] = second compound 1 µM, first compound 1 µM
# [23] = second compound 1 µM, first compound 3.16 µM
# [24] = second compound 1 µM, first compound 10 µM
# [25] = second compound 3.16 µM, first compound 0.0316 µM
# [26] = second compound 3.16 µM, first compound 0.1 µM
# [27] = second compound 3.16 µM, first compound 0.316 µM
# [28] = second compound 3.16 µM, first compound 1 µM
# [29] = second compound 3.16 µM, first compound 3.16 µM
# [30] = second compound 3.16 µM, first compound 10 µM
# [31] = second compound 10 µM, first compound 0.0316 µM
# [32] = second compound 10 µM, first compound 0.1 µM
# [33] = second compound 10 µM, first compound 0.316 µM
# [34] = second compound 10 µM, first compound 1 µM
# [35] = second compound 10 µM, first compound 3.16 µM
# [36] = second compound 10 µM, first compound 10 µM
# 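Note: spheroids exposed to drugs for seven days.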
# 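Throughout, for viability, T/C: 100% = DMSO vehicle control viability.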
smiles,measurement,setting,value
CC1COCCN1c1cc(C2(S(C)(=N)=O)CC2)nc(-c2ccnc3[nH]ccc23)n1 (stereo not drawn) + Cc1[nH]c2ccc(F)cc2c1-c1nc2c3cccnc3c3ncccc3c2[nH]1,IC50,second compound 0.0316 µM,> 10 µM
same,IC50,second compound 0.1 µM,> 10 µM
same,IC50,second compound 0.316 µM,> 10 µM
same,IC50,second compound 1 µM,> 10 µM
same,IC50,second compound 3.16 µM,7.86 µM
same,IC50,second compound 10 µM,0.424 µM
same,"viability, T/C",[1],96.4%
same,"viability, T/C",[2],83%
same,"viability, T/C",[3],110%
same,"viability, T/C",[4],89.6%
same,"viability, T/C",[5],87.1%
same,"viability, T/C",[6],67.3%
same,"viability, T/C",[7],76.6%
same,"viability, T/C",[8],101%
same,"viability, T/C",[9],85.8%
same,"viability, T/C",[10],90.1%
same,"viability, T/C",[11],75%
same,"viability, T/C",[12],74.1%
same,"viability, T/C",[13],97.3%
same,"viability, T/C",[14],79.8%
same,"viability, T/C",[15],97.7%
same,"viability, T/C",[16],70.1%
same,"viability, T/C",[17],74.6%
same,"viability, T/C",[18],63.6%
same,"viability, T/C",[19],80.3%
same,"viability, T/C",[20],79%
same,"viability, T/C",[21],85.4%
same,"viability, T/C",[22],76.1%
same,"viability, T/C",[23],64.3%
same,"viability, T/C",[24],57.4%
same,"viability, T/C",[25],56.2%
same,"viability, T/C",[26],58.6%
same,"viability, T/C",[27],55.9%
same,"viability, T/C",[28],50.1%
same,"viability, T/C",[29],53.6%
same,"viability, T/C",[30],48.7%
same,"viability, T/C",[31],47.9%
same,"viability, T/C",[32],49.5%
same,"viability, T/C",[33],47.5%
same,"viability, T/C",[34],58.2%
same,"viability, T/C",[35],44%
same,"viability, T/C",[36],36.3%
O=c1[nH]cc(F)c(=O)[nH]1 + Cc1[nH]c2ccc(F)cc2c1-c1nc2c3cccnc3c3ncccc3c2[nH]1,IC50,second compound 0.0316 µM,> 10 µM
same,IC50,second compound 0.1 µM,> 10 µM
same,IC50,second compound 0.316 µM,> 10 µM
same,IC50,second compound 1 µM,> 10 µM
same,IC50,second compound 3.16 µM,> 10 µM
same,IC50,second compound 10 µM,< 0.0316 µM
same,"viability, T/C",[1],71.4%
same,"viability, T/C",[2],85.6%
same,"viability, T/C",[3],92.9%
same,"viability, T/C",[4],76.8%
same,"viability, T/C",[5],77.5%
same,"viability, T/C",[6],100%
same,"viability, T/C",[7],79.3%
same,"viability, T/C",[8],97.2%
same,"viability, T/C",[9],88.9%
same,"viability, T/C",[10],82.7%
same,"viability, T/C",[11],83%
same,"viability, T/C",[12],80%
same,"viability, T/C",[13],75.7%
same,"viability, T/C",[14],91.2%
same,"viability, T/C",[15],80.4%
same,"viability, T/C",[16],94%
same,"viability, T/C",[17],74.5%
same,"viability, T/C",[18],85.3%
same,"viability, T/C",[19],57.3%
same,"viability, T/C",[20],63%
same,"viability, T/C",[21],73.1%
same,"viability, T/C",[22],65.6%
same,"viability, T/C",[23],70.8%
same,"viability, T/C",[24],73.3%
same,"viability, T/C",[25],54.6%
same,"viability, T/C",[26],49.9%
same,"viability, T/C",[27],48.5%
same,"viability, T/C",[28],48%
same,"viability, T/C",[29],53.8%
same,"viability, T/C",[30],51.9%
same,"viability, T/C",[31],41.2%
same,"viability, T/C",[32],46.7%
same,"viability, T/C",[33],43.2%
same,"viability, T/C",[34],44.5%
same,"viability, T/C",[35],45.3%
same,"viability, T/C",[36],42.9%
O=C(c1cc(Cc2n[nH]c(=O)c3ccccc23)ccc1F)N1CCN(C(=O)C2CC2)CC1 + Cc1cnc(CNC(=O)c2c(=O)c3ccc(N4CCCN(C)CC4)nc3n3c2sc2ccccc23)cn1,IC50,second compound 0.0316 µM,> 10 µM
same,IC50,second compound 0.1 µM,> 10 µM
same,IC50,second compound 0.316 µM,> 10 µM
same,IC50,second compound 1 µM,> 10 µM
same,IC50,second compound 3.16 µM,> 10 µM
same,IC50,second compound 10 µM,> 10 µM
same,"viability, T/C",[1],80.1%
same,"viability, T/C",[2],85%
same,"viability, T/C",[3],89.3%
same,"viability, T/C",[4],79.3%
same,"viability, T/C",[5],90.8%
same,"viability, T/C",[6],91.6%
same,"viability, T/C",[7],81.1%
same,"viability, T/C",[8],92.8%
same,"viability, T/C",[9],82.2%
same,"viability, T/C",[10],83.8%
same,"viability, T/C",[11],85.5%
same,"viability, T/C",[12],83%
same,"viability, T/C",[13],96%
same,"viability, T/C",[14],91.4%
same,"viability, T/C",[15],83.4%
same,"viability, T/C",[16],81.8%
same,"viability, T/C",[17],96.7%
same,"viability, T/C",[18],73.5%
same,"viability, T/C",[19],69.9%
same,"viability, T/C",[20],77.1%
same,"viability, T/C",[21],91.2%
same,"viability, T/C",[22],75.5%
same,"viability, T/C",[23],83.8%
same,"viability, T/C",[24],67.3%
same,"viability, T/C",[25],76.9%
same,"viability, T/C",[26],70%
same,"viability, T/C",[27],61.1%
same,"viability, T/C",[28],68.4%
same,"viability, T/C",[29],77.2%
same,"viability, T/C",[30],72.7%
same,"viability, T/C",[31],74.5%
same,"viability, T/C",[32],68.1%
same,"viability, T/C",[33],80.2%
same,"viability, T/C",[34],62.5%
same,"viability, T/C",[35],77.8%
same,"viability, T/C",[36],53.2%
C#Cc1c(F)ccc2cc(O)cc(-c3ncc4c(N5CC6CCC(C5)N6)nc(OCC56CCCN5CC(F)C6)nc4c3F)c12 (stereo not drawn) + Cc1[nH]c2ccc(F)cc2c1-c1nc2c3cccnc3c3ncccc3c2[nH]1,IC50,second compound 0.0316 µM,> 10 µM
same,IC50,second compound 0.1 µM,2.5 µM
same,IC50,second compound 0.316 µM,1.13 µM
same,IC50,second compound 1 µM,0.208 µM
same,IC50,second compound 3.16 µM,< 0.0316 µM
same,IC50,second compound 10 µM,< 0.0316 µM
same,"viability, T/C",[1],89%
same,"viability, T/C",[2],85.2%
same,"viability, T/C",[3],89.2%
same,"viability, T/C",[4],71.7%
same,"viability, T/C",[5],57.2%
same,"viability, T/C",[6],51.2%
same,"viability, T/C",[7],80.2%
same,"viability, T/C",[8],80.3%
same,"viability, T/C",[9],82.5%
same,"viability, T/C",[10],73.8%
same,"viability, T/C",[11],44%
same,"viability, T/C",[12],34.1%
same,"viability, T/C",[13],68.4%
same,"viability, T/C",[14],67.4%
same,"viability, T/C",[15],57%
same,"viability, T/C",[16],56%
same,"viability, T/C",[17],33.8%
same,"viability, T/C",[18],27.4%
same,"viability, T/C",[19],70.3%
same,"viability, T/C",[20],48.7%
same,"viability, T/C",[21],48.7%
same,"viability, T/C",[22],39.7%
same,"viability, T/C",[23],40%
same,"viability, T/C",[24],26.2%
same,"viability, T/C",[25],19.1%
same,"viability, T/C",[26],14.9%
same,"viability, T/C",[27],12.7%
same,"viability, T/C",[28],13.6%
same,"viability, T/C",[29],9.51%
same,"viability, T/C",[30],17.4%
same,"viability, T/C",[31],35.7%
same,"viability, T/C",[32],41.8%
same,"viability, T/C",[33],35.7%
same,"viability, T/C",[34],34.2%
same,"viability, T/C",[35],28.1%
same,"viability, T/C",[36],15.6%
